From patent publication US6610502B1, “Compound 2-amino-3-[2-(α-mannopyranosyl)indol-3-yl]propionic acid, process for preparing the same, and method for inspecting function of living body with the novel compound” (Kyowa Medex Co., Ltd., priority 1997, dated 2003)
Where “and” joins values, the source holds several entries; their conditions need not be identical. Identical values can stand only once.

Experiments:
[1] = tested on: monoclonal antibody specifically reactive with 2-amino-3-[2-(α-mannopyranosyl)indole-3-yl]propionic acid; experiment: Confirming the specificity of the monoclonal antibody (competitive enzyme immunoassay, absorbance at 660 nm); type: binding, mouse; conditions: test samples at concentrations not more than 100 μg/ml; plate coated with BSA conjugate
Description: First, 50 μl of 2-amino-3-[2-(α-D-mannopyranosyl)indole-3-yl]propionic acid-BSA conjugate solution (20 μg/ml, 0.1M carbonate buffer, pH9.5) was dispensed into a 96-well microtiter plate (available from NUNC) and left to stand at 4° C. overnight. After washing the plate with PBS (×3), 250 μl of 1% BSA/PBS solution was dispensed into the plate and left to stand at room temperature for 1 hour. Then, the plate was washed with PBS (×3) to be used as a reaction plate. Next, 50 μl of 0.1M phosphate buffer (pH 7.4) containing varied concentrations of test sample/0.1% BSA was dispensed into the reaction plate into which 50 μl of the monoclonal antibody prepared in e. Purifying the antibodies above (0.1M phosphate buffer containing l10 ng/ml 0.1% BSA, pH7.4) was added while stirring. The mixture was allowed to react at room temperature for 3 hours. After the reaction was completed, the plate was washed with PBS containing 0.05% Tween 20 (5×), and then 50 μl of POD labeled-anti-mouse immunoglobulins-rabbit IgG (DAKO) was added to the plate for reaction at room temperature for 1 hour. […] Finally, 50 μl of reaction stopper (ethyldiethyldithiocarbamate) was added to the plate of which absorbance was then determined at 660 nm by a microplate reader.

[2] = Assay of excreted amount in urine, comparative example: creatinine by enzymatic assay kit (Example 9); type: in vivo, human; conditions: healthy persons
[3] = GFR assay, comparative example: creatinine in the same samples by enzymatic assay kit, clearance (Example 8); type: in vivo, human

Row | excreted amount in urine, average ([2]; female, age 0-10) [mg/day] | excreted amount in urine, average ([2]; female, age 0-90) [mg/day] | excreted amount in urine, average ([2]; female, age 10-30) [mg/day] | excreted amount in urine, average ([2]; female, age 30-50) [mg/day] | excreted amount in urine, average ([2]; female, age 50-70) [mg/day] | excreted amount in urine, average ([2]; female, age 70-90) [mg/day] | excreted amount in urine, average ([2]; male, age 0-10) [mg/day] | excreted amount in urine, average ([2]; male, age 0-90) [mg/day] | excreted amount in urine, average ([2]; male, age 10-30) [mg/day] | excreted amount in urine, average ([2]; male, age 50-70) [mg/day] | excreted amount in urine, average ([2]; male, age 70-90) [mg/day] | creatinine in serum ([3]; Average of 18 subjects) [mg/dL] | creatinine in urine ([3]; Average of 18 subjects) [mg/dL] | SMILES | decrease in the absorbance (reaction with the antibody) [1] | creatinine in serum ([3]; individual subjects 1-18, patients with non-renal disease) | creatinine in urine ([3]; individual subjects 1-18, urine stored for 24 hours)
1 | – | – | – | – | – | – | – | – | – | – | – | – | – | O=C[C@@H](O)[C@@H](O)[C@H](O)[C@H](O)CO (racemic) [DL-mannose] | no decrease | – | –
2 | – | – | – | – | – | – | – | – | – | – | – | – | – | N[C@@H](Cc1c[nH]c2ccccc12)C(=O)O [L-tryptophan] | no decrease | – | –
3 | 245 | 559 | 609 | 742 | 684 | 515 | 387 | 833 | 1066 | 893 | 599 | 0.65 | 72.12 | CN1CC(=O)NC1=N [creatinine] | – | 0.61 mg/dl and 0.80 mg/dl (3×) and 0.50 mg/dl and 0.40 mg/dl (3×) and 0.70 mg/dl (4×) and 0.56 mg/dl and 0.72 mg/dl and 0.63 mg/dl and 0.64 mg/dl and 0.71 mg/dl and 0.84 mg/dl | 50.1 mg/dL and 48.9 mg/dL and 21.2 mg/dL and 51.9 mg/dL and 30.5 mg/dL and 70.2 mg/dL and 32.0 mg/dL and 74.1 mg/dL and 48.2 mg/dL and 138.8 mg/dL and 46.5 mg/dL and 100.2 mg/dL and 63.5 mg/dL and 142.0 mg/dL and 88.0 mg/dL and 69.9 mg/dL and 183.1 mg/dL and 39.0 mg/dL
